Active and inactive are the calls of the source. No cut-off for these calls is given here.
Assays:
Rattus norvegicus [1] = assay: Cardiovascular activity in anesthetized Sprague-Dawley rat assessed as reduction in blood pressure at 200 ug/kg, iv; type: functional; set-up: scale not given: the % may be the effect or the level left
Rattus norvegicus [2] = assay: Cardiovascular activity in anesthetized Sprague-Dawley rat assessed as reduction in heart rat at 400 ug/kg, iv; type: functional; set-up: scale not given: the % may be the effect or the level left
Rattus norvegicus [3] = assay: Cardiovascular activity in anesthetized Sprague-Dawley rat assessed as reduction in blood pressure at 400 ug/kg, iv; type: functional; set-up: scale not given: the % may be the effect or the level left
Rattus norvegicus [4] = assay: Cardiovascular activity in anesthetized Sprague-Dawley rat assessed as reduction in heart rate at 200 ug/kg, iv; type: functional; set-up: scale not given: the % may be the effect or the level left
Canis familiaris [5] = assay: Cardiovascular activity in dog assessed as increase in cardial vagal afferent nerve activity at 150 ug/kg, iv; type: functional, Canis lupus familiaris
Canis familiaris [6] = assay: Cardiovascular activity in dog assessed as decrease in cardial vagal efferent nerve activity at 150 ug/kg, iv; type: functional, Canis lupus familiaris; set-up: scale not given: the % may be the effect or the level left
Rattus norvegicus [7] = assay: Cardiovascular activity in anesthetized Sprague-Dawley rat assessed as induction of cardiac arrhythmia at 200 ug/kg, iv; type: functional, organism-based; details: Heart
Rattus norvegicus [8] = assay: Cardiovascular activity in anesthetized Sprague-Dawley rat assessed as induction of cardiac arrhythmia at 400 ug/kg, iv; type: functional, organism-based; details: Heart

| SMILES | Activity (Rattus norvegicus [1]) | Activity (Rattus norvegicus [2]) | Activity (Rattus norvegicus [3]) | Activity (Rattus norvegicus [4]) | Activity (Canis familiaris [5]) | Activity (Canis familiaris [6]) | Activity (Rattus norvegicus [7]) | Activity (Rattus norvegicus [8]) |
| --- | --- | --- | --- | --- | --- | --- | --- | --- |
| CC[N+]1([O-])C[C@]2(COC)CC[C@H](OC)[C@]34C1[C@H]([C@H](OC)[C@H]23)[C@@]1(OC(C)=O)C[C@H](OC)[C@@]2(OC(C)=O)C[C@@H]4[C@@H]1[C@H]2OC(=O)c1ccccc1 (stereo not given in full) | 0% | 8.7% | 13.4% | 3.8% | – | – | – | – |
| CCN1C[C@]2(OC(=O)c3ccccc3NC(C)=O)CC[C@H](OC)[C@]34C1[C@H](C[C@H]23)[C@@]12C[C@H](OC)[C@H]3C[C@@H]4[C@]1(OCO2)[C@H]3OC | 26% | 5.6% | 16.4% | 5.7% | – | – | – | – |
| CCN1C[C@]2(COC)CC[C@H](OC)[C@@]34C1[C@@H](C1=C[C@H](OC)[C@@]5(O)C[C@@H]3[C@@H]1[C@H]5OC(=O)c1ccccc1)[C@H](OC)[C@H]24 [PYRODELPHININE] | 23.1% | 8.1% | 14.3% | 7.7% | – | – | – | – |
| CCN1C[C@]2(COC)CC[C@H](OC)[C@]34C1[C@H]([C@H](OC)[C@H]23)[C@@]1(OC(=O)c2ccc(N)cc2)C[C@H](OC)[C@@]2(O)C[C@@H]4[C@@H]1[C@H]2OC(=O)c1ccccc1 | 42.4% | 14.8% | 38% | 8.4% | – | – | – | – |
| CCN1C[C@]2(OC(=O)c3ccccc3N)CC[C@H](OC)[C@]34C1[C@H](C[C@H]23)[C@@]1(OC(C)=O)C[C@H](OC)[C@H]2C[C@@H]4[C@]1(OC(C)=O)[C@H]2OC | 0% | 0% | 0% | 0% | – | – | – | – |
| CC[N+]1([O-])C[C@]2(C)CC[C@H](OC)[C@]34C1[C@H]([C@@H](O)[C@H]23)[C@@]1(O)CC[C@H]2C[C@@H]4[C@@H]1C(=O)O2 (stereo not given in full) | 28.1% | 8.9% | 7.6% | 18.8% | – | – | – | – |
| CCN1C[C@]2(COC)CC[C@H](OC)[C@]34C1[C@H](C[C@H]23)[C@H]1C[C@@H](OC)[C@@]2(O)C[C@@H]4[C@@H]1[C@H]2OC(=O)c1ccccc1 | 22.6% | 3% | 27.6% | 0% | – | – | – | – |
| CCN1C[C@]2(COC)CC[C@H](OC)[C@]34C1[C@H]([C@H](OC)[C@H]23)[C@@]1(OC(=O)/C=C/c2ccc(O)c(OC)c2)C[C@H](OC)[C@@]2(O)C[C@@H]4[C@@H]1[C@H]2OC(=O)c1ccccc1 | 8.8% | 8.3% | 10.6% | 8.3% | – | – | – | – |
| CCN1C[C@@]2(COC)[C@H]3[C@@H](OC)[C@H]4C1[C@]3([C@@H](OC)C[C@H]2OC(C)=O)[C@@H]1C[C@]2(OC(C)=O)[C@@H](OC)C[C@@]4(OC(C)=O)[C@H]1[C@H]2OC(=O)c1ccc(OC)c(OC)c1 | 13.2% | 0% | 0% | 5.4% | – | – | – | – |
| CCN1C[C@]2(COC)CC[C@H](OC)[C@]34C1[C@H]([C@H](OC)[C@H]23)[C@@]1(OC(=O)c2cccc3cc5ccccc5cc23)C=C[C@@]2(O)C[C@@H]4[C@@H]1[C@H]2OC(=O)c1ccccc1 | 0% | 3.8% | 9.2% | 3.7% | – | – | – | – |
| CCN1C[C@]2(OC(=O)c3ccccc3N)CC[C@H](OC)[C@]34C1[C@H](C[C@H]23)[C@@]1(O)C[C@H](OC)[C@H]2C[C@@H]4[C@]1(O)[C@H]2OC | 27.2% | 14.8% | 57.6% | 12.7% | 40% | 23.5% | – | – |
| CCN1C[C@@]2(COC)[C@H]3[C@@H](OC)[C@H]4C1[C@]3([C@@H](OC)C[C@H]2OC(C)=O)[C@@H]1C[C@H]2[C@H](OC(=O)c3ccc(OC)c(OC)c3)[C@@H]1[C@]4(OC(C)=O)C[C@@H]2OC | – | – | – | – | – | – | Active | Active |
| CCCCCCCCCCCCCCCCCC(=O)O[C@]12C[C@H](OC)[C@H]3C[C@H]([C@@H]1[C@H]3OC(=O)c1ccc(OC)c(OC)c1)[C@@]13C4[C@@H]2[C@H](OC)[C@@H]1[C@](COC)(CN4CC)[C@H](O)C[C@@H]3OC | 15.3% | 24.5% | 53.4% | 0% | – | – | – | – |
| CC/C=C\C/C=C\C/C=C\CCCCCCCCC(=O)O[C@]12C[C@H](OC)[C@H]3C[C@H]([C@@H]1[C@H]3OC(=O)c1ccc(OC)c(OC)c1)[C@@]13C4[C@@H]2[C@H](OC)[C@@H]1[C@](COC)(CN4CC)[C@H](O)C[C@@H]3OC | 30.3% | 24.5% | 53.4% | 8.5% | – | – | – | – |
| CCN1C[C@]2(COC)CC[C@H](OC)[C@]34C1[C@H]([C@H](OC)[C@H]23)[C@@]1(OC(=O)c2cccc3cc5ccccc5cc23)C[C@H](OC)[C@@]2(O)C[C@@H]4[C@@H]1[C@H]2OC(=O)c1ccccc1 | 20.8% | 2% | 0% | 4.2% | – | – | – | – |
